Test results as given in PubChem BioAssay AID720632 (Broad Institute, 2013).
The source made the active and inactive calls. The rule behind the calls is not given here.

Target: Caspase-6 (Homo sapiens) (UniProt P55212)
Experiment: inhibition of CASP6 peptide cleavage – biochemical, VEID-R110 fluorescence, cherry-pick, dose response (AID 720632)
Details: caspase-6, VEID-R110 fluorogenic substrate

Sequence of Caspase-6 (Homo sapiens) (P55212 24-179 limits assumed): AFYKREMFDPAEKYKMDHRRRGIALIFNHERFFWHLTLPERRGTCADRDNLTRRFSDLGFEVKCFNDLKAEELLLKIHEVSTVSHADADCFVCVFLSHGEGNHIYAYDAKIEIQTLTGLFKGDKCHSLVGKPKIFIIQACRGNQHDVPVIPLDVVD
Sequence of Caspase-6 (Homo sapiens) (P55212 194-293 limits assumed): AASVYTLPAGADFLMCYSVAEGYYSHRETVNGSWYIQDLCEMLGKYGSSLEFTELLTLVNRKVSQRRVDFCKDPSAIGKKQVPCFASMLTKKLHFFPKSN

| Structure (SMILES) | activity change, negative = inhibition (at 23.5 µM (top of the series)) | activity change, negative = inhibition (at 26 µM (top of the series)) |
| --- | --- | --- |
| CO[C@@H]1CN(C)C(=O)c2ccc(NC(=O)C3CC3)cc2OC[C@@H](C)N(Cc2cccc(F)c2)C[C@@H]1C | inactive | – |
| CCCC(=O)Nc1ccc2c(c1)OC[C@@H](C)N(Cc1ccc(F)cc1)C[C@H](C)[C@@H](OC)CN(C)C2=O | – | inactive |
| COCC(=O)N1[C@@H]2CN(C(=O)Nc3ccccc3F)c3ccccc3[C@@H]2[C@@H]1CO | inactive | – |
| O=C(O)c1ccc(NS(=O)(=O)/C=C/c2ccccc2)cc1O | – | inactive |
| Nc1ccc(Sc2ccccc2Cl)nc1 | – | inactive |
| CCOC(=O)C1(Cc2ccccc2C)CCCN(C(=O)CCc2cccnc2)C1 (stereo not given) | – | inactive |
| CCc1ccc(NS(=O)(=O)c2cc(OC)ccc2OC)cc1 | – | inactive |
| Cc1ccc(C(=O)O)cc1NC(=O)c1ccc2c(c1)C(=O)N(c1ccc([N+](=O)[O-])cc1)C2=O | – | inactive |
| O=C1Cc2cc(S(=O)(=O)N3CCN(c4ccc(C(=O)O)cc4)CC3)ccc2N1 | – | inactive |
| CS(=O)(=O)c1ccc(Nc2nc(C(N)COCc3ccccc3)cs2)cc1 (stereo not given) | – | inactive |
| COc1ccc(CN=C(N)N=C(N)N)cc1Cl | – | inactive |
| Cc1ccc(C)c(OCCC(=O)N2CCN(S(=O)(=O)c3cc(F)ccc3F)CC2)c1 | – | inactive |
| CCCC(=O)Nc1ccc2c(c1)OC[C@@H](C)NC[C@H](C)[C@H](OC)CN(C)C2=O | – | inactive |
| Cc1cc(NC(=O)C23CC4CC(C2)CC(n2cnc([N+](=O)[O-])n2)(C4)C3)no1 | – | inactive |
| O=C(NCC(=O)N1CC=C(c2ccccc2)CC1)c1ccccc1Br | – | inactive |
| COc1ccc(S(=O)(=O)Nc2ccc(O)c(Sc3ncn[nH]3)c2)cc1 | – | inactive |
| COc1cc(N)c2ncccc2c1Cl | – | inactive |
| COCC(=O)Nc1ccc2c(c1)OC[C@H](C)N(CC1CC1)C[C@@H](C)[C@@H](OC)CN(C)C2=O | – | inactive |
| Cc1ccc(-c2nc3ccc(Cl)cn3c2Cc2ccsc2)cc1 | – | inactive |
| COC(=O)c1ccc(C(=O)OC)c(NC(=O)CN(c2ccc3c(c2)OCO3)S(C)(=O)=O)c1 | – | inactive |
| CO[C@@H]1CN(C)C(=O)c2ccc(NC(=O)c3ccccc3)cc2OC[C@@H](C)N(C(=O)C2CC2)C[C@@H]1C | – | inactive |
| Cn1c(SCCOc2ccccc2Cl)nnc1-c1ccncc1 | – | inactive |

| Structure (SMILES) | activity change, negative = inhibition (at 23.5 µM (top of the series)) | activity change, negative = inhibition (at 26 µM (top of the series)) |
| --- | --- | --- |
| CCCC(=O)Nc1ccc2c(c1)OC[C@H](C)N(Cc1ccc(F)cc1)C[C@H](C)[C@@H](OC)CN(C)C2=O | – | inactive |
| CCCC(=O)Nc1ccc2c(c1)OC[C@H](C)NC[C@@H](C)[C@@H](OC)CN(C)C2=O | – | inactive |
| COC(=O)[C@@H]1[C@@H](CO)[C@@H]2Cn3c(cccc3=O)[C@@H]2N1CC1CCOCC1 | – | inactive |
| Cc1ccc(-c2[nH]c3cc(C(=O)NCCCn4ccnc4)ccc3c(=O)c2O)cc1 | – | inactive |
| CC(C)OCCCNC(=O)CN1C(=O)COc2ccc(S(=O)(=O)N3CCCCCC3)cc21 | – | inactive |
| Cc1ccc(C)c(N2CCN(C(=O)CCCn3c(=S)[nH]c4cc5c(cc4c3=O)OCO5)CC2)c1 | – | inactive |
| CCCCOc1ccc(C(=O)OCC(=O)N2CCOCC2)cc1 | – | inactive |
| COc1cc2sc(C)nc2c2ccccc12 | – | inactive |
| CCN(CC)C(=O)COc1ccc(/C(C)=N/NC(=O)c2ccccc2O)cc1 | – | inactive |
| COc1cccc(CN(C)CC(O)COc2cc(Cl)ccc2Cl)c1 (stereo not given) | – | inactive |
| CN(C)CCNC(=O)c1cccc(S(=O)(=O)Nc2ccccc2F)c1 | – | inactive |
| O=C1c2ccccc2C(=O)C1(CO)c1ccccc1 | – | inactive |
| CC(C)CN1CCC(CN2CCNC(=O)C2=O)CC1 | – | inactive |
| CCC(=O)N1CCC1(C)C(=O)Nc1cccc2cccnc12 (stereo not given) | – | inactive |
| COc1cccc(C(=O)OC(C)C(=O)NCC2CCCCC2)c1 (stereo not given) | – | inactive |
| Cn1c(CSCCOc2ccccc2)n[nH]c1=S | – | inactive |
| Cc1onc(NC(=O)NC(=O)c2c(F)cccc2Cl)c1Br | – | inactive |
| COc1cc(OC)cc(C(=O)NNC(=O)CNC(=O)c2cccs2)c1 | – | inactive |
| COc1ccc(OC)c(S(=O)(=O)NCC(c2cccs2)N2CCc3ccccc3C2)c1 (stereo not given) | – | inactive |
| CCOC(=O)N1CCN(C(=O)Cc2ccccc2[N+](=O)[O-])CC1 | – | inactive |
| C/C(=N\NC(=O)c1ccccc1O)C1CC1 | – | inactive |
| CC(C)NC(=O)C1(C)CCN1C(=O)c1ccc2c(c1)OCO2 (stereo not given) | – | inactive |

| Structure (SMILES) | activity change, negative = inhibition (at 23.5 µM (top of the series)) | activity change, negative = inhibition (at 26 µM (top of the series)) |
| --- | --- | --- |
| COCCn1c(SCCN2CCOCC2)nc2c1c(=O)[nH]c(=O)n2C | – | inactive |
| CO[C@@H]1CN(C)C(=O)c2ccc(NC(C)=O)cc2OC[C@H](C)N(C(=O)CC2CC2)C[C@@H]1C | – | inactive |
| Cc1ccc(/C(N)=N/OC(=O)c2ccc3ccccc3c2)cc1 | – | inactive |
| CO[C@@H]1CN(C)C(=O)c2ccc(NC(=O)C3CC3)cc2OC[C@H](C)N(Cc2cccc(F)c2)C[C@@H]1C | – | inactive |
| C[C@@H](NC(=O)C[C@@H]1CC[C@@H](NC(=O)CN2CCOCC2)[C@@H](CO)O1)c1ccccc1 | – | inactive |
| COC(=O)C[C@@H]1CC[C@H](NC(=O)c2ccc3c(c2)OCO3)[C@@H](CO)O1 | – | inactive |
| Cc1ccc(C(=O)N/N=C\c2ccc(OC(=O)c3cccc(F)c3)cc2)cn1 | – | inactive |
| CCCCn1nnnc1C(CCSC)N1CCC(n2c(=O)[nH]c3ccccc32)CC1 (stereo not given) | – | inactive |
| C=CCC(NCc1ccccc1)c1ccc(Cl)cc1 (stereo not given) | – | inactive |
| O=C(COC(=O)c1ccccc1OCc1ccccc1Cl)NC1CCS(=O)(=O)C1 (stereo not given) | – | inactive |
| O=C(Nc1ccc(NC(=O)C2CC2)cc1)c1cccs1 | – | inactive |
| Cc1ccc(NC(=O)c2ccc([N+](=O)[O-])o2)cc1S(=O)(=O)N1CCOCC1 | – | inactive |
| CN1CCN(NC(=O)NC2CCCCC2)CC1 | – | inactive |
| CC(CN1CCCCC1)C(=O)NNC(=O)C12CC3CC(CC(C3)C1)C2 (stereo not given) | – | inactive |
| CO[C@H]1CN(C)C(=O)c2ccc(NC(=O)C3CC3)cc2OC[C@@H](C)N(Cc2ccccc2)C[C@@H]1C | – | inactive |
| O=C(NC(=C(Cl)Cl)S(=O)(=O)c1ccc(Cl)cc1)c1ccccc1 | – | inactive |
| CCC(=O)Nc1ccc2c(c1)OC[C@@H](C)N(C(=O)COC)C[C@H](C)[C@@H](OC)CN(C)C2=O | inactive | – |
| COCC(=O)Nc1ccc2c(c1)OC[C@@H](C)N(CC1CC1)C[C@H](C)[C@H](OC)CN(C)C2=O | – | inactive |
| CCC(=O)Nc1ccc2c(c1)OC[C@@H](C)N(C(=O)CC)C[C@@H](C)[C@@H](OC)CN(C)C2=O | – | inactive |
| CCC(=O)Nc1ccc2c(c1)OC[C@@H](C)N(C(=O)CC)C[C@H](C)[C@@H](OC)CN(C)C2=O | – | inactive |
| CC(=O)Oc1cc(C(=O)OCC(=O)N2CCc3ccccc3C2)cc(OC(C)=O)c1OC(C)=O | – | inactive |
| OC(c1ccc(F)cc1)c1ncc(-c2ccccc2F)[nH]1 (stereo not given) | – | inactive |

| Structure (SMILES) | activity change, negative = inhibition (at 23.5 µM (top of the series)) | activity change, negative = inhibition (at 26 µM (top of the series)) |
| --- | --- | --- |
| COc1ccc(C(=O)Nc2ccc3ccccc3c2)c(OC)c1 | – | inactive |
| CO[C@H]1CN(C)C(=O)c2ccc(NC(=O)C3CC3)cc2OC[C@@H](C)N(Cc2cccc(F)c2)C[C@@H]1C | – | inactive |
| CC1(C)C(=O)Nc2ccccc2N1C(=O)COC(=O)c1ccc([N+](=O)[O-])o1 | – | inactive |
| CC(C)(C)N(Cc1ccccc1)C(=O)COC(=O)c1ccc([N+](=O)[O-])o1 | – | inactive |
| CN(c1ccc(C(=O)Nc2ccc3c(c2)n(C)c(=O)n3C)cc1)S(C)(=O)=O | – | inactive |
| COc1ccc(OC)c(NC(=O)Nc2ccc(O)c3ccccc23)c1 | – | inactive |
| CN1CCN(c2cc(CNC[C@H]3O[C@@H](n4cnc5c(=O)[nH]c(N)nc54)[C@H](O)[C@@H]3O)ccc2F)CC1 | – | inactive |
| COc1cc(OC)c(OC)cc1CN1CCSCC1 | – | inactive |
| COCC(=O)Nc1ccc2c(c1)OC[C@@H](C)N(CC1CC1)C[C@H](C)[C@@H](OC)CN(C)C2=O | – | inactive |
| O=C(CCCn1c(=S)[nH]c2cc3c(cc2c1=O)OCO3)N1CCN(c2ccc(Cl)cc2)CC1 | – | inactive |
| COC(=O)c1cccc(NC(=O)c2cccc(N3C(=O)CCC3=O)c2)c1 | – | inactive |
| CCOC(=O)c1sc(C)c2c(=O)n(Cc3ccc(Cl)cc3)cnc12 | – | inactive |
| CC(C)CCn1c(=O)c2ccccc2n2c(CCC(=O)NCC3CCCO3)nnc12 (stereo not given) | – | inactive |
| CN1CCCCC(NC(=O)COCc2ccccc2)C1=O (stereo not given) | – | inactive |
| Cc1cc2c(NC(=O)Nc3ccc(F)cc3)cccc2nn1 | – | inactive |
| CCCN1C[C@@H](C)[C@@H](OC)CN(C)C(=O)c2ccc(NC(=O)c3ccccc3)cc2OC[C@@H]1C | – | inactive |
| CCCN1C[C@@H](C)[C@H](OC)CN(C)C(=O)c2ccc(NC(=O)CC)cc2OC[C@@H]1C | – | inactive |
| COc1ccc(NC(=O)C(F)(OC)C(F)(F)F)c(OC)c1 (stereo not given) | – | inactive |
| O=C1NC(=O)C(Sc2ccccc2[N+](=O)[O-])C(=O)N1 | – | inactive |
